Measurements taken from publication PMC2621304 (Analytical biochemistry, 2008).

Legend:
Human AhR [1] = target: T1, Human AhR (Homo sapiens, UniProt P35869); assay: Competitive binding assay against [3H]-TCDD, recombinant human AhR
T1 sequence (P35869 11-848): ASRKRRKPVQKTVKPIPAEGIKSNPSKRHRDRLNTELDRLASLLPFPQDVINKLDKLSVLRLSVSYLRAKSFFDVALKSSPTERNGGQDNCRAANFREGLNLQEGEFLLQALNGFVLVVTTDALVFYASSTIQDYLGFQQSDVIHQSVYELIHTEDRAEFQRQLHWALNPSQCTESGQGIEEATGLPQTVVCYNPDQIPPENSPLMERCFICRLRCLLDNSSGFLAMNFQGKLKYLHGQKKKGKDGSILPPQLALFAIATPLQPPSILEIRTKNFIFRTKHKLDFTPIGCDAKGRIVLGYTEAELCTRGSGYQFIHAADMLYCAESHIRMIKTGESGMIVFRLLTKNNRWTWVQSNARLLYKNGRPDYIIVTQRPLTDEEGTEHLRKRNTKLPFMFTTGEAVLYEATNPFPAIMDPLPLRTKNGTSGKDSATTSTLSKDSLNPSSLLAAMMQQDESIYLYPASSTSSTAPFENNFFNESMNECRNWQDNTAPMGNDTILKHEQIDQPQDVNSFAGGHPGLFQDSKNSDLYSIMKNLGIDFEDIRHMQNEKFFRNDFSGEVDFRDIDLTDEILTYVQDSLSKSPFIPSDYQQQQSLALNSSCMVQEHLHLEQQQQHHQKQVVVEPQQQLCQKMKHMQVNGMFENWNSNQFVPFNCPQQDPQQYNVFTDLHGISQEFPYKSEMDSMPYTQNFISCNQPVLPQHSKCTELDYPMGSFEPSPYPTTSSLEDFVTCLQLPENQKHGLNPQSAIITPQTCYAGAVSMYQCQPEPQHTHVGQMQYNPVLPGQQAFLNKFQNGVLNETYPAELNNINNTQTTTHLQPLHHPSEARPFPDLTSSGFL

Rat AhR [2] = target: T2, Rat AhR (Rattus norvegicus, UniProt P41738); assay: Competitive binding assay against [3H]-TCDD, recombinant rat AhR
T2 sequence (P41738 10-853): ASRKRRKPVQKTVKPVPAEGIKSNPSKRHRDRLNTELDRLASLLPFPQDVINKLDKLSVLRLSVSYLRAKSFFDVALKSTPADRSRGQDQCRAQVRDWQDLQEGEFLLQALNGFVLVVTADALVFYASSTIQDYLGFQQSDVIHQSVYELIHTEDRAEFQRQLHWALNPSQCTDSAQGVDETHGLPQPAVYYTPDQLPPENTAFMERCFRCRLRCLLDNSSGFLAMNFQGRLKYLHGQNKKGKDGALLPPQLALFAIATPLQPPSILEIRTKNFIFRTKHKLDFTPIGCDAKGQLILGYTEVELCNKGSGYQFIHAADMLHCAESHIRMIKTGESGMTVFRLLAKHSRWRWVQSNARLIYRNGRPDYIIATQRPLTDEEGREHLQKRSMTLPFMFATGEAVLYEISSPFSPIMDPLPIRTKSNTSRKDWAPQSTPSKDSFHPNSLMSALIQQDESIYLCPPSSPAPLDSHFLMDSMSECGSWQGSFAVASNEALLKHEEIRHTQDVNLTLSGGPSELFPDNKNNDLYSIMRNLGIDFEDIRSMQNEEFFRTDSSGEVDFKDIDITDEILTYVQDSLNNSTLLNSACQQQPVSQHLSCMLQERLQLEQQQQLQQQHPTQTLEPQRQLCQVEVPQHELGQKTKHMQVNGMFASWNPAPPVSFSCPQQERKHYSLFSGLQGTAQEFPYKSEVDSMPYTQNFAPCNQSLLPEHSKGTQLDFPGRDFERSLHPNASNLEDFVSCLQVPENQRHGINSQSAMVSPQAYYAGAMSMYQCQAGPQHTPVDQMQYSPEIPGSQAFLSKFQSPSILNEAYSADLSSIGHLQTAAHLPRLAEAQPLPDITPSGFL

[3] = Solubility of TCDD in protein solution; format: physicochemical; settings: unpublished data
Rat AhR [4] = target: T2, Rat AhR; assay: [3H]-TCDD saturation binding, recombinant rat AhR in Sf9 cytosol
Human AhR [5] = target: T1, Human AhR; assay: [3H]-TCDD saturation binding, recombinant human AhR in Sf9 cytosol; settings: optimised conditions
AhR in rat liver cytosol = target: T3, AhR in rat liver cytosol (Rattus norvegicus, UniProt P41738); assay: [3H]-TCDD saturation binding, rat liver cytosol
T3 sequence (P41738 10-853): T2 sequence (P41738 10-853)

SMILES	Ki (Human AhR [1]) [nM]	Ki (Rat AhR [2]) [nM]	potency relative to TCDF and PCDD, human AhR (Human AhR [1])	also measured
Clc1cc2c(cc1Cl)Oc1c(cc(Cl)c(Cl)c1Cl)O2 [1,2,3,7,8-pentachlorodibenzo-p-dioxin]	7.62	0.46	–	–
Clc1cc2oc3cc(Cl)c(Cl)cc3c2cc1Cl [2,3,7,8-tetrachlorodibenzofuran]	6.27	0.36	–	–
Clc1cc2oc3c(Cl)c(Cl)c(Cl)cc3c2cc1Cl [2,3,4,7,8-pentachlorodibenzofuran]	14.1	1.5	two-fold less potent	potency as ligand relative to PCDD, rat AhR (Rat AhR [2]; relative to PCDD): three-fold less potent
Clc1cc2c(cc1Cl)Oc1cc(Cl)c(Cl)cc1O2 [TCDD, 2,3,7,8-tetrachlorodibenzo-p-dioxin]	15.4	0.55	two-fold less potent	solubility in protein solution [3]: declines dramatically at concentrations much in excess of 2 nM; Kd (Rat AhR [4]; Kd (typical experiment, Fig. 5A), MOI of 0.1, typical experiment): 1.35 nM; Kd (Rat AhR [4]; Kd for TCDD, recombinant rat AhR, MOI of 0.1, n=6 independent determinations): 1.34 ± 0.32 nM; Bmax, recombinant rat AhR (Rat AhR [4]; MOI of 0.1, [3H]-TCDD): 1.5±0.37 pmol/ mg cytosolic protein; Bmax (typical experiment, Fig. 5A) (Rat AhR [4]; MOI of 0.1, typical experiment): 1.83 pmol/mg; Kd (Human AhR [5]; Kd for TCDD, human AhR, n=6): 2.77 ± 0.94 nM; Bmax, human AhR (Human AhR [5]; [3H]-TCDD): 0.46±0.12 pmol/mg cytosolic protein; Kd (AhR in rat liver cytosol; apparent Kd for TCDD, saturation binding, mean ± Standard deviation, n=6): 1 ± 0.45 nM; maximal binding capacity (Bmax) (AhR in rat liver cytosol; per mg cytosolic protein, [3H]-TCDD): 52 fmol/mg
Clc1ccc(-c2cc(Cl)c(Cl)c(Cl)c2)cc1Cl [PCB126, polychlorinated biphenyl 126]	736	24.7	–	fold less potent as a ligand than TCDD, human AhR (Human AhR [1]; relative to TCDD): ~40 fold; fold less potent than TCDD, rat AhR (Rat AhR [2]; relative to TCDD): ~50 fold
